{"source": "patent US20260193659A1", "about": "“METHODS FOR TREATING MONGE'S DISEASE” (The Regents of the University of California, priority 2022, published 2026)", "key": {"[1]": {"system": "Monge's disease", "details": "patients; cited from earlier work"}, "[2]": {"system": "CMS cells", "assay": "BFU-E colony forming assay with CK2 inhibitors, iPSC-derived CD34+ cells under hypoxia", "format": "cell-based, human", "details": "5% O2, 14 days, TBB 25 μM, 50 µM, 100 μM, CX4945 2.5, 5, 10 μM", "method": "(§1) CD34^+ cells were isolated from iPSC-derived EBs as follows. After 7 days of differentiation, EBs were harvested by spinning at 400 g for 10 minutes. After centrifugation, EBs were dissociated into single cells using Accutase treatment for 10 minutes and then filtered through a 60 μm cell strainer (Falcon). CD34^+ cells were isolated from this cell suspension using EasySep Human CD34 Positive Selection Kit 11 ([…] Technologies, 17856) per the manufacturer's instructions. These iPSC-derived CD34+ cells were used in subsequent qPCR and colony-forming assays.\nCD34^+ cells used in this assay were derived from iPSC-generated EBs as described herein. CD34^+ cells were plated at a density of 10^5 cells per 35 mm dish combined with MethoCult H4034 Optimum Media ([…] Technologies, 04044) and 2% FBS. Dishes were incubated at 37° C. in an incubator with 5% CO2 and 5% O2 for 14 days, at which time colonies were scored for BFU-E and CFU-granulocyte, erythrocyte, monocyte, megakaryocyte (CFU-GEMM).\nTBB (catalog ab120988) and CX4945 (catalog S2248) were purchased from Abcam and Selleckcam, respectively. Dose-response experiments were performed with the inhibitors using the following concentrations in the colony forming assays using iPSC-derived CD34^+ cells as described herein: TBB (25 μM, 50 µM, and 100 μM) and CX4945 (2.5 μM, 5 μM, and 10 μM)."}, "[3]": {"system": "LINC02228 (HIKER)", "assay": "KD efficiency of LINC02228 (HIKER) by ASO, qPCR", "format": "cell-based, human", "details": "CMS cells", "method": "Locked nucleic acids (LNAs) targeting HIKER/LINC02228 and LINC00431 were designed and synthesized by Exiqon. The most efficient ASO for each LNA was initially tested in the pilot experiment with and without transfection reagent (Lipofectamine 3000. Life Technologies. L3000-008) in a dose-response experiment at a concentration of 10 nM, 25 nM, 50 nM, and 100 nM. The uptake and the effect of ASO were monitored by qPCR at various stages (iPSC stage and CD34+ cells isolated from EBs). For both lncRNAs, the optimal delivery for all the stages was at the 50 nM concentration without the transfection reagent.\nas §1"}, "[4]": {"system": "zebrafish embryos", "assay": "Hemoglobin staining (o-dianisidine) of zebrafish embryos injected with csnk2b morpholino", "format": "in vivo, Zebrafish (Danio rerio)", "details": "2 dpf", "method": "Zebrafish (Danio rerio) were raised in a circulating aquarium system on a 14-hour light/10-hour dark cycle at 28.5° C., following standard husbandry procedures.\nThe morpholino antisense oligo (MO) 5′-[…]-3′ (SEQ ID NO: 23) was synthesized to block the translation initiation of csnk2b, and the 5-mismatch oligo 5′-[…]-3′ (SEQ ID NO: 24) was synthesized as a specificity control (Gene Tools). For synthesizing CSNK2B rescue mRNA that is resistant to the translation blocking MO, the full-length csnk2b coding sequence with 4 base pairs of silent mutations in the MO recognition region was cloned into the pCS2-vector (Azenta Life Sciences), in which the first 24 base pairs of the CSNK2B coding sequence became 5′-[…]-3′ (SEQ ID NO: 25). The csnk2b capped mRNA was synthesized using the mMESSAGE mMACHINE Kit (Ambion, AM1340). Microinjection was performed on WT AB embryos at the 1- to 2-cell stages.\nEmbryos at 2 dpf were dechorionated and anesthetized with 0.016% tricaine (Fluka, A5040), followed by a 15-minute incubation in 0.6 mg/mL o-dianisidine solution (SigmaAldrich, D9143). This solution was prepared in 0.65% H2 O2 (EMD, HX0647-3), 40% ethanol (KOPTEC, 89125), and 10 mM sodium acetate (Fisher Chemical, S210-500) at room temperature. Stained embryos were washed twice with 1×PBS (Gibco, Thermo Fisher Scientific, 14200166) and then fixed in 4% paraformaldehyde (PFA) (SigmaAldrich, P6148). Hemoglobin signal was observed under a light microscope and quantified according to the area and intensity in the heart and common cardinal vein; embryos were categorized into normal, medium, and low hemoglobin levels."}}, "note": "Entries after “also recorded” stand apart in the source; their conditions may differ.", "data": [{"compound": "CC(=O)Nc1nnc(S(N)(=O)=O)s1", "note": "[Acetazolamide]", "values": [{"measurement": "clinical response in Monge's disease", "setting": "[1]", "result": "mild response and relief of symptoms"}]}, {"compound": "Brc1c(Br)c(Br)c2n[nH]nc2c1Br", "note": "[TBB]", "values": [{"measurement": "BFU-E colonies (erythroid colony numbers)", "setting": "[2]", "result": "significant changes were observed in the colony numbers in a dose-dependent manner; also recorded: decreases BFU-E colonies in CMS cells in a dose-dependent manner"}]}, {"compound": "ASO-1: LNA gapmer ASO targeting HIKER/LINC02228, SEQ ID NO 1: G*G*T*T*G*C*T*T*T*C*A*G*G*C*C*C*C*T*T*A (antisense GGTTGCTTTCAGGCCCCTTA; all phosphorothioate, sugars by position and methylation of C not given here; LNA gapmer)", "values": [{"measurement": "KD efficiency, ranking among the 3 ASOs", "setting": "[3]", "result": "highest KD efficiency"}]}, {"compound": "MO: morpholino antisense oligo 5′-CGACACTTCCTCTGAGCTACTCATG-3′ (SEQ ID NO: 23) blocking translation initiation of csnk2b (all phosphorodiamidate morpholino (PMO))", "values": [{"measurement": "hemoglobin levels", "setting": "[4]; 1 ng dose", "result": "minimal impact on hemoglobin levels"}, {"measurement": "hemoglobin versus controls", "setting": "[4]; 3 ng and 5 ng MO dosage", "result": "remarkable decrease in hemoglobin"}, {"measurement": "morphants showing moderate or low iron staining", "setting": "[4]; 3 ng and 5 ng MO", "result": "more than 97%"}, {"measurement": "hemoglobin, dose dependence", "setting": "[4]; 1, 3 or 5 ng", "result": "dose-dependent loss of hemoglobin"}]}]}
